Experimental data published in publication PMC2806525, “Proteinase-activated receptor-2 mediated inhibition of TNFα-stimulated JNK activation — A novel paradigm for Gq/11 linked GPCRs” (Cellular Signalling, 2010).
Entries after “also recorded” stand apart in the source; their conditions may differ. One block for each compound: values may come before it. Residues, ends and D or L forms follow the SMILES beside them.

Legend:
PKC isoforms = conditions: cited from earlier work
Source text: We then examined the potential signalling pathways which could be mediating the inhibitory effects of PAR2. PAR2 is coupled to a number of signalling pathways via G-protein dependent and independent mechanisms. […] Therefore, we tested the effect of the PKC inhibitor GF109203X on PAR2 mediated inhibition of JNK activity and phosphorylation. ... || We then sought to investigate the possible mechanisms by which PAR2 mediated inhibition of JNK might occur. […] This is typical of a number of keratinocyte cell type ...

TNFR1/TRADD = TNFR1/TRADD complex formation (TNFR1 immuno-precipitation, TRADD immuno-blot), PAR2 expressing cells; format: cell-based, human; conditions: 100 nM YM254890 or 3 μM GF109203X 30 min, peptide 100 μM 30 min, TNFα 10 ng/ml 30 min
Protocol: (§1) Human skin epithelial cells NCTC2544 were maintained in M199 medium with Earl's salt supplement, 10% (v/v) foetal calf serum, L-glutamine (27 µg/ml), penicillin (250 U/ml), and streptomycin (25 mg/ml). NCTC2544 cells stably expressing human PAR2 (clone G) were maintained in complete M199 medium containing 400 μg/ml of Geneticin for selection pressure and passaged using Versene (2% EDTA/PBS). EAhy-926 cells were produced by hybridizing human umbilical vein endothelial cells (HUVECs) with the epithelial cell line A549 [27] and maintained in Dulbecco's Modified Eagle's Medium (DMEM) supplemented with 10% foetal calf serum (FCS), hypoxanthine/aminopterin/thymidine (HAT supplement), penicillin (250 U/ml) and streptomycin (25 mg/ml), and cells were passaged using Versene.
Proteins were separated by 10% SDS–PAGE and transferred onto nitrocellulose. The membranes were blocked for non-specific binding for 2 h in 2% BSA (w/v) diluted in NATT buffer (50 mM Tris–HCl, 150 mM NaCl, 0.2% (v/v) Tween-20). The blots were then incubated overnight with 50 ng/ml primary antibody diluted in 0.2% BSA (w/v) in NATT buffer. The blots were washed with NATT buffer for 90 min and incubated with HRP-conjugated secondary antibody (20 ng/ml in 0.2% BSA (w/v) diluted in NATT buffer) for 2 h. After a further 90 min wash, the blots were subjected to ECL reagent and exposed to Kodak X-ray film.
For immuno-precipitation of TNFR1, equal amounts of pre-cleared cell lysates were incubated in Tris–HCl buffer, pH 7.4, containing 50 mM NaCl, 1 mM EDTA, 1 mM EGTA, 1% (w/v) Triton X-100, and 0.5% (w/v) Nonidet P-40, with 2 μg TNFR1 antibody, pre-coupled to protein G, for 3 h. Lysates were recovered by sequential washes in solubilisation buffer and in the same buffer lacking detergents. Precipitates were assessed for TRADD or RIP content using Western blotting.
Fig. 7 PAR2 mediated TNFR1 adapter protein disruption in PAR2 expressing cells. In Panel A, cells were pre-treated with peptide (100 μM) or vehicle prior to stimulation with TNFα (10 ng/ml) for 30 min. Lysates were immuno-precipitated for TNFR1 and immuno-blotted for TRADD and/or RIP, as outlined in the Methods section. In Panel B cells were pre-treated with 100 nM YM254890 or 3 μM GF109203X for 30 min prior to pre-treatment with peptide (100 μM), for 30 min, then incubated for a further 30 min with TNFα (10 ng/ml). TNFR1 immuno-precipitates were immuno-blotted for TRADD. Each gel is representative of at least three experiments.

PKC [1] = experiment: TNFα-stimulated JNK activity, PKC activator / PKC inhibitor, PAR2 NCTC2544 cells; format: cell-based, human
Protocol: as §1
To measure JNK activity, cells were stimulated as appropriate and the reaction terminated by rapid aspiration and the addition of ice-cold PBS. The cells were solubilised in 20 mM HEPES buffer, pH 7.7, containing 50 mM NaCl, 0.1 mM EDTA, 0.1 mM Na3VO4, 0.1 mM PMSF, 10 mg/ml aprotinin, 10 mg/ml leupeptin, and 1% (w/v) Triton X-100. Lysates were clarified by centrifugation for 5 min at 13,000 rpm and equal amounts of protein were incubated with 20 μg of GST-c-Jun-(5–89) immobilized on glutathione-Sepharose at 4 °C for 3 h. Beads were then washed three times in solubilisation buffer and twice in 25 mM HEPES buffer, pH 7.6, containing 20 mM β-glycerophosphate, 0.1 mM NaV3O4, and 2 mM dithiothreitol. Precipitates were then incubated with the same buffer containing 25 μM/0.5 μCi of ATP/[γ-^32P] ATP in a final volume of 30 µl at 30 °C for 30 min. The reactions were terminated by the addition of 4× SDS-sample buffer and aliquots of each sample subjected to electrophoresis on 11% SDS-polyacrylamide gel electrophoresis. Phosphorylation of GST-c-Jun was then determined by autoradiography.
Where experimental data is shown as a blot, this represents one of at least 3 experiments and data represents the mean ± s.e.m. Statistical analysis was by one-way ANOVA with Dunnett's post test (*P < 0.05, **P < 0.01).
Fig. 5 Pharmacological blockade of protein kinase C reverses PAR2 mediated inhibition of TNFα-stimulated JNK activation. PAR2 expressing NCTC2544 cells (clone G) were pre-incubated with increasing concentrations of GF109203X (GFX) for 30 min then incubated for a further 30 min with 100 nM PMA (Panel A) or 30 nM trypsin (Panel B) prior to stimulation for a further 30 min with TNFα(+) (10 ng/ml). Samples were assessed for JNK activity (Panels A and B) or phospho-JNK levels (Panel D) as outlined in the Methods section. Gels from JNK activity assays were quantified by densitometry (Panel C). Each value represents the mean ± s.e.m from at least 4 experiments. ⁎⁎P < 0.01 compared to TNFα and trypsin stimulated.

PKC [2] = experiment: TNFα-stimulated JNK phosphorylation, PKC activator / PKC inhibitor, PAR2 NCTC2544 cells; format: cell-based, human; conditions: GF109203X 10 μM; trypsin or SLIGKV-OH; TNFα 10 ng/ml 30 min
Protocol: as §1
Proteins were separated by 10% SDS–PAGE and transferred onto nitrocellulose. The membranes were blocked for non-specific binding for 2 h in 2% BSA (w/v) diluted in NATT buffer (50 mM Tris–HCl, 150 mM NaCl, 0.2% (v/v) Tween-20). […]
Fig. 5 Pharmacological blockade of protein kinase C reverses PAR2 mediated inhibition of TNFα-stimulated JNK activation. […] Samples were assessed for JNK activity (Panels A and B) or phospho-JNK levels (Panel D) as outlined in the Methods section. Gels from JNK activity assays were quantified by densitometry (Panel C). […]

human PAR2 [3] = biological target: T1, human PAR2 (Homo sapiens, UniProt P55085); experiment: JNK activity, agent alone, PAR2 NCTC2544 cells (clone G); format: cell-based; conditions: 30 min, no TNFα, mean ± s.e.m, at least 4 experiments
T1 construct: expressed in transfected cells
T1 sequence (P55085 26-397): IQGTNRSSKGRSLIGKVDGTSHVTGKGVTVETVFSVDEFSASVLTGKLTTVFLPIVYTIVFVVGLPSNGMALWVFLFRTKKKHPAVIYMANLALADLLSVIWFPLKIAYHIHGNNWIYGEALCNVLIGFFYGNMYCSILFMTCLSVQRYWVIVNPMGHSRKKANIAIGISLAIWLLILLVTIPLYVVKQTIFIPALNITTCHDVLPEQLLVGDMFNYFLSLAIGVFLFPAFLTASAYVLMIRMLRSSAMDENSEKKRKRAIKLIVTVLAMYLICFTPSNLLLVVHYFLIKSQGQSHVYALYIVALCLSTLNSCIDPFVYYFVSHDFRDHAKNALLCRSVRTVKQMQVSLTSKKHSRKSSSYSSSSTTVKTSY
Protocol: as §1
To measure JNK activity, cells were stimulated as appropriate and the reaction terminated by rapid aspiration and the addition of ice-cold PBS. The cells were solubilised in 20 mM HEPES buffer, pH 7.7, containing 50 mM NaCl, 0.1 mM EDTA, 0.1 mM Na3VO4, 0.1 mM PMSF, 10 mg/ml aprotinin, 10 mg/ml leupeptin, and 1% (w/v) Triton X-100. Lysates were clarified by centrifugation for 5 min at 13,000 rpm and equal amounts of protein were incubated with 20 μg of GST-c-Jun-(5–89) immobilized on glutathione-Sepharose at 4 °C for 3 h. […] Phosphorylation of GST-c-Jun was then determined by autoradiography. […]
(§2) Fig. 4 Concentration response effects of PAR2 peptides for activation of JNK and inhibition of TNFα-stimulated JNK. PAR2 expressing NCTC2544 cells (clone G) were incubated with increasing concentrations of SLIGKV-OH or 2f-LIGKV-OH for 30 min and assayed for JNK activity (Panel B) or stimulated for a further 30 min with TNFα (+) before JNK activity was assessed (Panel A). Samples were assessed for JNK activity as outlined in the Methods section. Gels from JNK assays were quantified (Panel C). Each value represents the mean ± s.e.m from at least 4 experiments and data was quantified by densitometry.

human PAR2 [4] = biological target: T1, human PAR2; experiment: TNFα-stimulated JNK activity (in vitro c-Jun phosphorylation), PAR2 agonist pre-incubation, PAR2 NCTC2544 cells (clone G); format: cell-based; conditions: 30 min pre-incubation, then TNFα 30 min, mean ± s.e.m, at least 4 experiments
Protocol: as §1
To measure JNK activity, cells were stimulated as appropriate and the reaction terminated by rapid aspiration and the addition of ice-cold PBS. […] Phosphorylation of GST-c-Jun was then determined by autoradiography. […]
Fig. 1 PAR2 activation mediates inhibition of TNFα-stimulated JNK activity and phosphorylation in PAR2 NCTC2544 cells. […] Samples were assessed for JNK activity (Panel A) or phospho-JNK levels (Panel C) as outlined in the Methods section. Gels from JNK assays were quantified (Panel B). Each value represents the mean ± s.e.m from at least 4 experiments and data was quantified by densitometry. ⁎P < 0.05, ⁎⁎P < 0.01 compared to TNFα alone.
as §2

SMILES: CN(C)CCCn1cc(C2=C(c3c[nH]c4ccccc34)C(=O)NC2=O)c2ccccc21 [GF109203X]
PKC isoform inhibition (PKC isoforms; ref [40–42]): block both Ca^2+-dependent and some novel PKC isoforms | reversal of PAR2 mediated disruption of TNFR1/TRADD complex (TNFR1/TRADD): effectively reversed PAR2 mediated disruption | reversal of PAR2 mediated inhibition of JNK activity by PKC inhibitor (PKC [1]; GF109203X 10 μM (maximal concentration), trypsin 30 nM or SLIGKV-OH, TNFα 10 ng/ml 30 min): reversed the inhibitory effect of trypsin and SLIGKV-OH on TNFα-stimulated JNK activation | reversal of PAR2 mediated JNK inhibition by PKC inhibitor, general statement (PKC [1]; abstract / discussion): the effects of both agents were reversed; also recorded: good reversal of PAR2 mediated inhibition | reversal of PMA effect on TNFα-stimulated JNK activity (PKC [1]; micromolar concentrations GF109203X 30 min, 100 nM PMA 30 min, TNFα 10 ng/ml 30 min): reversed by micromolar concentrations | reversal of PAR2 mediated inhibition of JNK phosphorylation by PKC inhibitor (PKC [2]): reversed the inhibitory effect

SMILES: Cn1c2ccccc2c2c3c(c4c5ccccc5n(CCC#N)c4c21)CNC3=O [Go6976]
PKC isoform preference (PKC isoforms; no reference given): preferentially inhibits the classical group of PKC isoforms | effect of classical PKC inhibitor on PAR2 mediated JNK inhibition (PKC [1]; not shown): without effect

EC50 (human PAR2 [3]; densitometry, read-out: EC50, stimulation of JNK activity by peptide alone): 10.1 ± 3.3 µM | % stimulation of JNK activity alone (human PAR2 [3]; maximal efficacy comparison): 43.950 ± 6.482% | IC50 (human PAR2 [4]; densitometry, read-out: IC50, inhibition of TNFα-stimulated JNK activity): 6.24 ± 1.32 µM | % inhibition of TNFα-stimulated JNK activity (human PAR2 [4]; maximal efficacy comparison): 93.567 ± 6.882%
SMILES: CC[C@H](C)[C@H](NC(=O)[C@H](CC(C)C)NC(=O)[C@@H](N)CO)C(=O)NCC(=O)N[C@@H](CCCCN)C(=O)N[C@H](C(=O)O)C(C)C [SLIGKV-OH] (H-SLIGKV-OH)
